{
  "source": "paper PMC3248958",
  "about": "(Bioorganic & medicinal chemistry, 2011)",
  "data": [
    {"molecular_target": "T1, Human Aromatase (Homo sapiens, UniProt P11511)", "T1 sequence (P11511 1-503)": "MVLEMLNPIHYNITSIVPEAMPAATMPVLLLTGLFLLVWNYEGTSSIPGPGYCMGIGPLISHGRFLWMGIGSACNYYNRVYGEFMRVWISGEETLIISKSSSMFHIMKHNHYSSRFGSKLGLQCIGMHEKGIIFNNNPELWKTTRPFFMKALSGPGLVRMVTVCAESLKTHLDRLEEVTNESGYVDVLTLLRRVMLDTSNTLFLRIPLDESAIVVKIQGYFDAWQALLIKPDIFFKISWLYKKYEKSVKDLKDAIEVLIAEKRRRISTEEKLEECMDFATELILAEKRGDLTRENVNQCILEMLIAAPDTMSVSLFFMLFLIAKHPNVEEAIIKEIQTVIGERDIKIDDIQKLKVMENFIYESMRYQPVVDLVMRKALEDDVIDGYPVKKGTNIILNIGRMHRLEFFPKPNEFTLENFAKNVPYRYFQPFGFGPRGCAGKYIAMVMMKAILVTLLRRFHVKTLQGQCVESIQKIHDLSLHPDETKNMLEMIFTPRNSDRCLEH", "assay": "Aromatase assay", "format": "biochemical", "details": "not given", "values": [
      {"smiles": "c1cncc(-c2nsc(-c3cccnc3)n2)c1", "note": "[Compound 3b]", "times higher aromatase inhibitory activity than trans-resveratrol": "30-125 times", "times more potent than the lead compound 3a as an aromatase inhibitor": "greater than 250 times"}
    ]},
    {"molecular_target": "T1, Human Aromatase", "assay": "Aromatase assay", "format": "biochemical", "details": "relative to trans-resveratrol", "values": [
      {"smiles": "c1cc(-c2nsc(-c3ccncc3)n2)ccn1", "note": "[Compound 3c]", "times higher aromatase inhibitory activity than trans-resveratrol": "30-125 times"}
    ]},
    {"test_system": "quinone reductase 1 (QR1)", "assay": "Quinone reductase 1", "format": "cell-based, mouse", "details": "Hepa 1c1c7 cells; determined for compounds with induction ratios > 2", "units": {"QR1 Assay CD (concentration that doubles the activity)": "µM"}, "values": [
      {"smiles": "O=[N+]([O-])c1ccc(-c2nsc(-c3ccc([N+](=O)[O-])cc3)n2)cc1", "note": "[Compound 3ff]", "QR1 Assay CD (concentration that doubles the activity)": "> 50"},
      {"smiles": "Oc1ccc(CCc2cc(O)cc(O)c2)cc1", "note": "[dihydroresveratrol, reference compound]", "QR1 Assay CD (concentration that doubles the activity)": "> 50"},
      {"smiles": "CCCCc1ccc(-c2nsc(-c3ccc(CCCC)cc3)n2)cc1", "note": "[Compound 3z, 3,5-Bis(4-butylphenyl)-1,2,4-thiadiazole]", "QR1 Assay CD (concentration that doubles the activity)": "> 50"},
      {"smiles": "Cc1ccc(-c2nsc(-c3ccc(C)cc3)n2)cc1", "note": "[Compound 3x, 3,5-Di-p-tolyl-1,2,4-thiadiazole]", "QR1 Assay CD (concentration that doubles the activity)": "> 50"},
      {"smiles": "Ic1ccc(-c2nsc(-c3ccc(I)cc3)n2)cc1", "note": "[Compound 3l, 3,5-Bis(4-iodophenyl)-1,2,4-thiadiazole]", "QR1 Assay CD (concentration that doubles the activity)": "> 50"},
      {"smiles": "N#Cc1ccc(-c2nsc(-c3ccc(C#N)cc3)n2)cc1", "note": "[Compound 3gg, 4,4′-(1,2,4-Thiadiazole-3,5-diyl)dibenzonitrile]", "QR1 Assay CD (concentration that doubles the activity)": "> 50"},
      {"smiles": "Nc1ccc(-c2nsc(-c3ccc(N)cc3)n2)cc1", "note": "[Compound 3ll, 3,5-Bis(4-aminophenyl)-1,2,4-thiadiazole]", "QR1 Assay CD (concentration that doubles the activity)": "> 50"},
      {"smiles": "N#Cc1cccc(-c2nsc(-c3cccc(C#N)c3)n2)c1", "note": "[Compound 3hh, 3,3′-(1,2,4-Thiadiazole-3,5-diyl)dibenzonitrile]", "QR1 Assay CD (concentration that doubles the activity)": "> 50"},
      {"smiles": "Clc1ccc(-c2nsc(-c3ccc(Cl)c(Cl)c3)n2)cc1Cl", "note": "[Compound 3v, 3,5-Bis(3,4-dichlorophenyl)-1,2,4-thiadiazole]", "QR1 Assay CD (concentration that doubles the activity)": "> 50"},
      {"smiles": "COc1ccc(-c2nsc(-c3ccc(OC)cc3)n2)cc1", "note": "[Compound 3g]", "QR1 Assay CD (concentration that doubles the activity)": "> 50"},
      {"smiles": "Cc1ccc(-c2nsc(-c3ccc(C)cc3Br)n2)c(Br)c1", "note": "[Compound 3dd, 3,5-Bis(2-bromo-4-methylphenyl)-1,2,4-thiadiazole]", "QR1 Assay CD (concentration that doubles the activity)": "> 50"},
      {"smiles": "Oc1ccc(-c2nsc(-c3ccc(O)cc3)n2)cc1", "note": "[Compound 3jj]", "QR1 Assay CD (concentration that doubles the activity)": "> 50"},
      {"smiles": "c1cc(-c2nsc(-c3ccncc3)n2)ccn1", "note": "[Compound 3c]", "QR1 Assay CD (concentration that doubles the activity)": "> 50"}
    ]},
    {"test_system": "quinone reductase 1 (QR1)", "assay": "Quinone reductase 1", "format": "cell-based, mouse", "details": "Hepa 1c1c7 cells; positive control", "units": {"QR1 Assay CD of positive control": "M"}, "values": [
      {"smiles": "O=c1cc(-c2ccc(Br)cc2)oc2ccccc12", "note": "[4'-Bromoflavone, reference compound]", "QR1 Assay CD of positive control": 0.01}
    ]},
    {"test_system": "not given", "assay": "not given", "details": "tested at 400 μM of each compound", "units": {"DPPH assay % inhibition": "%"}, "values": [
      {"smiles": "c1cncc(-c2nsc(-c3cccnc3)n2)c1", "note": "[Compound 3b]", "DPPH assay % inhibition": "-16.1±1.1"},
      {"smiles": "c1cc(-c2nsc(-c3ccncc3)n2)ccn1", "note": "[Compound 3c]", "DPPH assay % inhibition": "-35.6±0.4"}
    ]}
  ]
}
